In data set [1] the test system is mites in Brinjal. Description: Trial of efficacy on mites in Brinjal. Format: in vivo. The procedure:
Trials were conducted to test the efficacy of the combination of Chlorantraniliprole+Bifenthrin+Bifenazate on mites in Brinjal: […]

In data set [2] the test system is Lucinodes arbonalis. Description: Trial of efficacy on Lucinodes arbonalis in Brinjal. Format: in vivo. As for the experimental part: Trials were conducted to test the efficacy of the combination of Chlorantraniliprole+Bifenthrin+Bifenazate on Lucinodes arbonalis in Brinjal: […]

In the case of `Cc1c(COC(=O)[C@@H]2[C@H](/C=C(\Cl)C(F)(F)F)C2(C)C)cccc1-c1ccccc1` (racemic) [Bifenthrin], in data set [1] (dose 40 gm. ai/ha), the “% mortality 3 DAA” value was 75%, the “% mortality 7 DAA” value came to 80%, the “% mortality 10 DAA” value was 75% and the “% mortality 14 DAA” value is on record as 65%. For the same compound, in data set [2] (dose 40 gm. ai/ha), the “% mortality 3 DAA” value is 55%, the “% mortality 7 DAA” value came out at 65%, the “% mortality 10 DAA” value is on record as 53% and the “% mortality 14 DAA” value is 41%.
For the compound `COc1ccc(-c2ccccc2)cc1NNC(=O)OC(C)C` [Bifenazate], in data set [1] (dose 150 gm. ai/ha), the “% mortality 3 DAA” value came to 65%, the “% mortality 7 DAA” value was 95.1%, the “% mortality 10 DAA” value is recorded as 85% and the “% mortality 14 DAA” value worked out at 75%. Further, in data set [2] (dose 150 gm. ai/ha), the “% mortality 3 DAA” value was determined as 9.9%, the “% mortality 7 DAA” value was 12%, the “% mortality 10 DAA” value turned out to be 10.9% and the “% mortality 14 DAA” value was determined as 7.9%.
For `CNC(=O)c1cc(Cl)cc(C)c1NC(=O)c1cc(Br)nn1-c1ncccc1Cl` [Chlorantraniliprole], in data set [1] (dose 30 gm. ai/ha), the “% mortality 3 DAA” value stood at 9.9%, the “% mortality 7 DAA” value was 8.9%, the “% mortality 10 DAA” value was found to be 7.9% and the “% mortality 14 DAA” value is on record as 10.9%. In data set [2] (dose 30 gm. ai/ha), the “% mortality 3 DAA” value was 80%, the “% mortality 7 DAA” value was found to be 90.1%, the “% mortality 10 DAA” value is on record as 89.1% and the “% mortality 14 DAA” value worked out at 79%.

Values taken from patent publication US12256735B2, “Insecticidal combinations” (UPL LTD, priority 2018, dated 2025).
